What was measured:
human ANO1(abc) = biological target: T1, human ANO1(abc) (Homo sapiens, UniProt Q5XXA6, DEL476-501); experiment: YFP fluorescence plate reader assay of iodide influx in ANO1 expressing FRT cells; assay type: cell-based; settings: read-out: IC50 of ANO1 inhibition
T1 construct: expressed in transfected cells
T1 sequence (Q5XXA6 with tags, fused parts or gaps isoform Q5XXA6-5 DEL539-564): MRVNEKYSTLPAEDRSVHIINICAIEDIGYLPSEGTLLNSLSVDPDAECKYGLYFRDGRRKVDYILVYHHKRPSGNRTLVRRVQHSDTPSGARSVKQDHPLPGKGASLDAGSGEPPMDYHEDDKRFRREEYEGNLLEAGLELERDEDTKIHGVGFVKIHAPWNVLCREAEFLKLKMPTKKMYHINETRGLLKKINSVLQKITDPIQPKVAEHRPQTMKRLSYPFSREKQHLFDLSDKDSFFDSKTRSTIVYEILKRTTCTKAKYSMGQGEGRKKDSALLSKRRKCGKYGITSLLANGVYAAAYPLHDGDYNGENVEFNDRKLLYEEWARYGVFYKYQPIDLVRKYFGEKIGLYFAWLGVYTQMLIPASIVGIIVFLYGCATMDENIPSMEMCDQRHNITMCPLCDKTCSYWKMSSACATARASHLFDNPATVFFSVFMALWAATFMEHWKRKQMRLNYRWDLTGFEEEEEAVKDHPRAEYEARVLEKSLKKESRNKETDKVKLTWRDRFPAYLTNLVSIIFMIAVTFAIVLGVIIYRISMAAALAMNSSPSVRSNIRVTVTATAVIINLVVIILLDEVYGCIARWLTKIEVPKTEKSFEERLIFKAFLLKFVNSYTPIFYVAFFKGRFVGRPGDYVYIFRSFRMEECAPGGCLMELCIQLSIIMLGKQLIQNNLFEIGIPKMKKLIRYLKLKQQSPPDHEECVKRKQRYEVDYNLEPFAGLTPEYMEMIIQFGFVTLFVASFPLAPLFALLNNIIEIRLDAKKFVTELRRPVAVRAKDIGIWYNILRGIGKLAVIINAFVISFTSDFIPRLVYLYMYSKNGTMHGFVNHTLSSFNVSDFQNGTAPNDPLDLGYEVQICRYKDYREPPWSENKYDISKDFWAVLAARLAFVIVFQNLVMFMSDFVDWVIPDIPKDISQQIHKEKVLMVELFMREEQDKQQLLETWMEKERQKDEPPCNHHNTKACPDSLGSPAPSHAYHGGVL
Experimental: Cell based screening was performed as described in previous study. Briefly, ANO1 and YFP expressing FRT cells were plated in 96-well black-walled microplates (Corning Inc., Corning, NY) at a density of 20,000 cells per well, and then cultured for 2 days. Assays were done using FLUOstar Omega microplate reader (BMG Labtech, Ortenberg, Germany) and MARS Data Analysis Software (BMG Labtech). Each well of 96-well plate was washed 3 times in PBS (200 μL/wash), leaving 100 μL PBS. Test compounds (1 μL) were added to each well at 25 μM final concentration. After 10 min, 96-well plates were transferred to a plate reader for fluorescence assay. Each well was assayed individually for TMEM16A-mediated I^- influx by recording fluorescence continuously (400 ms per point) for 1 s (baseline), then 100 μL of 140 mM I^- solution containing 200 μM ATP was added at 1 s and then YFP fluorescence was recorded for 5 s. Initial iodide influx rate was determined from the initial slope of fluorescence decrease, by nonlinear regression, following infusion of iodide with ATP.
ANO1 chloride channel activity was measured using Fischer rat thyroid (FRT) cells stably expressing human ANO1(abc) and the genetically encoded iodide-sensing fluorescent protein, YFP-F46L/H148Q/I152L. This cell model was used because of our prior success in ANO1 chloride channel drug discovery. For the screening to identify ANO1 inhibitors, the FRT cells were pre-incubated with test compounds for 10 minutes prior to addition of an iodide and ATP, an agonist of P2 purinergic receptor which induces an increase in intracellular calcium concentration and activation of ANO1, containing solution.

ANO2 = biological target: T2, ANO2 (Mus musculus, UniProt Q8CFW1); experiment: Apical membrane current in FRT-ANO2 cells; assay type: cell-based; settings: 10 μM pretreatment
T2 sequence (Q8CFW1 1-1002): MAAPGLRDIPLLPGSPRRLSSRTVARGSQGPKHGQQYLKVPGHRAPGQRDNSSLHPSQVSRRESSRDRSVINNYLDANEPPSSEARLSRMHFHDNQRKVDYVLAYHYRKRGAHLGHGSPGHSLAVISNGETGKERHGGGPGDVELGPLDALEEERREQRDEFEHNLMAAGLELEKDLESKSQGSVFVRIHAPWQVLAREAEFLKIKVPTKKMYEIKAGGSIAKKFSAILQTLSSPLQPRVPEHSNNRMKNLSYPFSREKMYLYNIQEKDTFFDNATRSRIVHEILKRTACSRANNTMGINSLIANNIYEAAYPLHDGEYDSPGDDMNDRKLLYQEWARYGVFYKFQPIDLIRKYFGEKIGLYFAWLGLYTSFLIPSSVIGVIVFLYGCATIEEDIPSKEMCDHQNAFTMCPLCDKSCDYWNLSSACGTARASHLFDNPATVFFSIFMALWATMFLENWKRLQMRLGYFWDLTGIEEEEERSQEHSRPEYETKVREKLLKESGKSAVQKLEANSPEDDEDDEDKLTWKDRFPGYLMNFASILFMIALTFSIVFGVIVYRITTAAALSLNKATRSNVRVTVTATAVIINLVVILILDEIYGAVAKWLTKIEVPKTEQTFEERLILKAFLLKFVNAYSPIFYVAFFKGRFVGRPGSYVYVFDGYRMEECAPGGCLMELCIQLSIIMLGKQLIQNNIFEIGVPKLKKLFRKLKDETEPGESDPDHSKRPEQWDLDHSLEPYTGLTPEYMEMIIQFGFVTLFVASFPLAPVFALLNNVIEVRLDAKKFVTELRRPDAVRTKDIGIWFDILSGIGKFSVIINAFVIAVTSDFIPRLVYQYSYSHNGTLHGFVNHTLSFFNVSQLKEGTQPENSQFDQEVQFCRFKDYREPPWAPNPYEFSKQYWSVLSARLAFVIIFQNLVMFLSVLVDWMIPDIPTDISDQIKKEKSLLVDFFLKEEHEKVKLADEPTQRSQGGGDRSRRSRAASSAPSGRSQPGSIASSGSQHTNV
Experimental: (§1) Snapwell inserts containing ANO1, ANO2 or CFTR expressing FRT cells, ENaC expressing T-84 cells or the human primary airway epithelial cells were mounted in Ussing chambers (Physiologic Instruments, San Diego, CA). To induce transcriptional ENaC induction, the polarized T84 cells were incubated with 2 mM sodium butyrate for 2 days. To increase the functional expression of ANO1, the human airway epithelial cells were treated with IL-4 (10 ng/mL) for 2 days. For T-84 and the human primary airway epithelial cells, the apical and basolateral bath were filled with HCO3^—buffered solution containing (in mM): 120 NaCl, 5 KCl, 1 MgCl2, 1 CaCl2, 10 D-glucose, 2.5 HEPES, and 25 NaHCO3 (pH 7.4). For FRT cells, the basolateral bath was filled with the HCO3^—buffered solution and the apical bath was filled with a half-Cl^- solution. In the half-Cl^- solution 65 mM NaCl in the HCO3^—buffered solution was replaced by Na-gluconate. […] ATP was applied to the apical bath solution to induce intracellular calcium increase. […] Apical membrane currents were measured with an EVC4000 Multi-Channel V/I Clamp (World Precision Instruments, Sarasota, FL) and PowerLab 4/35 (AD Instruments, Castle Hill, Australia). Data were analyzed using Labchart Pro 7 (AD Instruments). The sampling rate was 4 Hz.
ANO1 belongs to anoctamin gene family which contains ten members presenting eight-pass transmembrane segments with cytosolic N- and C-terminals. ANO2 shares a high level of amino acid homology to ANO1 (~60%) and, ANO1 and ANO2 are confirmed CaCCs. However, the roles of other family members (ANO3-ANO10) remain poorly understood and controversial. […] We investigated the effect of these inhibitors on ANO2-mediated apical membrane current in FRT-ANO2 cells.

VRAC [1] = experiment: VRAC activity by YFP quenching in LN215 cells; assay type: cell-based, human; settings: 10 μM
Experimental: LN215 cells, a human glioma cell line, were stably transfected with YFP-F46L/H148Q/I152L, a halide sensor YFP. After the cells were incubated on 96well black plates (Corning Inc., Corning, NY) for 48 hours, each well of the 96-well plate was washed 3 times in PBS (200 μL/wash), and the wells were filled with 50 μl/well isotonic solution (in mM): 140 NaCl, 5 KCl, 20 HEPES (310 mOsm/kg; pH 7.4 with NaOH). In each well, VRAC expressed on the cells were stimulated with addition of 50 μl of hypotonic solutions (in mM): 5 KCl, 20 HEPES, 90 mannitol (120 mOsm/kg). Test compounds (1 μL) were added to each well in a dose dependent manner. After 5 min, 96-well plates were transferred to a plate reader for fluorescence assay. Each well was assayed individually for VRAC-mediated I^- influx by recording fluorescence continuously (400 ms per point) for 7.6 s. YFP fluorescence was recorded 0.4 s for baseline, then 100 μL of 140 mM I^- solution was added at 0.4 s to see the change in fluorescence. Initial iodide influx rate was determined from the initial slope of fluorescence decrease, by nonlinear regression, following infusion of iodide.

ANO1 = biological target: T3, ANO1 (Homo sapiens, UniProt Q5XXA6, DEL476-501); experiment: Apical membrane current in ANO1 expressing FRT cells; assay type: cell-based; settings: 100 μM ATP
T3 construct: expressed in transfected cells
T3 sequence (Q5XXA6 with tags, fused parts or gaps isoform Q5XXA6-5 DEL539-564): T1 sequence (Q5XXA6 with tags, fused parts or gaps isoform Q5XXA6-5 DEL539-564)
Experimental: as §1

mouse ANO2 = biological target: T4, mouse ANO2 (Mus musculus, UniProt Q8CFW1); experiment: YFP quenching assay in FRT cells expressing ANO2; assay type: cell-based; settings: dose dependent, 100 μM ATP
T4 sequence (Q8CFW1 1-1002): T2 sequence (Q8CFW1 1-1002)

VRAC [2] = tested on: VRAC; set-up: method as in PMID 24965069, PMID 25163766, PMID 26438191; settings: ref [26]–[28]; cited from earlier work
human wild-type CFTR = biological target: T5, human wild-type CFTR (Homo sapiens, UniProt P13569); experiment: Apical membrane current in FRT cells expressing CFTR; assay type: cell-based; settings: 10 μM, CFTR activated by 20 μM forskolin
T5 construct: expressed in transfected cells; host or cells: Fischer rat thyroid (FRT) cells
T5 sequence (P13569 whole entry): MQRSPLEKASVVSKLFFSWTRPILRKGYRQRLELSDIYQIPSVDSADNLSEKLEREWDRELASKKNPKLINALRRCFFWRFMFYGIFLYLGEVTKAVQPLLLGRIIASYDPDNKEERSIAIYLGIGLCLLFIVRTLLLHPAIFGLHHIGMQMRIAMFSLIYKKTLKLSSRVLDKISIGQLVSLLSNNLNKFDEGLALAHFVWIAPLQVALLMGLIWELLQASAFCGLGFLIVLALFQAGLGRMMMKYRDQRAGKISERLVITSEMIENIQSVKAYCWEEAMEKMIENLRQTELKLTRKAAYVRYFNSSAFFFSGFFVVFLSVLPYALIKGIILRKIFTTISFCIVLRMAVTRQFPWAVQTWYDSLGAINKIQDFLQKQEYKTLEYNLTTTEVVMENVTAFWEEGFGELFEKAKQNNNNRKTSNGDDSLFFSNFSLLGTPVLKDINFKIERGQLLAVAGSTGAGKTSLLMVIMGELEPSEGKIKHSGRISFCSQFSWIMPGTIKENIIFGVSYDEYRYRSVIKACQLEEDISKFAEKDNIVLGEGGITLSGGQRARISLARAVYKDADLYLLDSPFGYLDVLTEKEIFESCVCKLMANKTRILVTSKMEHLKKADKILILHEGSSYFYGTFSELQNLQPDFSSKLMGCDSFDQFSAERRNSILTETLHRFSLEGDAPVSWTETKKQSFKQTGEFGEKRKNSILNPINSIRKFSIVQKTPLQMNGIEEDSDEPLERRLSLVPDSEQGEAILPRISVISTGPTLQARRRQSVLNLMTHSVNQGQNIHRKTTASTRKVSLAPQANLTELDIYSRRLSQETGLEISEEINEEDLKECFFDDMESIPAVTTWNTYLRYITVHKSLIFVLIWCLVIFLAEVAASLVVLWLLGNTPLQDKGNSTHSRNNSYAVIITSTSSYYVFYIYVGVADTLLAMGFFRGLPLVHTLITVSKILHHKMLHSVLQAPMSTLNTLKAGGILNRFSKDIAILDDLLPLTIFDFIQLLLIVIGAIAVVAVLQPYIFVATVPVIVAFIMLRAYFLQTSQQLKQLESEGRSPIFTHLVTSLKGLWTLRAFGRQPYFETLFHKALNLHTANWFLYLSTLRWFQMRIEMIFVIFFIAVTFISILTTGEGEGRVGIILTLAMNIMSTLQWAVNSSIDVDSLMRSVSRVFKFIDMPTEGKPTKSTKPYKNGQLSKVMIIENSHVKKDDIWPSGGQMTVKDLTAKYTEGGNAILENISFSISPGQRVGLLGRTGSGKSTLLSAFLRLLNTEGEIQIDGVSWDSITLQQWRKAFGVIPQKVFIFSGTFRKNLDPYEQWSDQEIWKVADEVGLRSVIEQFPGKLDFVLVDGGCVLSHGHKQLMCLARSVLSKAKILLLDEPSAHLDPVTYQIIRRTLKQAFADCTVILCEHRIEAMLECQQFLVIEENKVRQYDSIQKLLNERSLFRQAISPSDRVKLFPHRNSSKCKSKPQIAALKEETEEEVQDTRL
Experimental: as §1
ANO1 was activated by either 10 μM Eact, an ANO1 activator, or 100 μM ATP.

Compound | IC50 (human ANO1(abc)) [nM] | further results
CCOc1ccc(Br)cc1/C=N/NC(=O)COc1ccc(Cl)cc1Cl [#1] | 194 | 
COc1ccc(OC)c(/C=N/NC(=O)COc2ccc(Cl)cc2C)c1 [#2] | 262 | 
Cc1cc(Cl)ccc1OCC(=O)N/N=C/c1ccc(O)cc1 [#3] | 301 | 
COc1ccccc1/C=N/NC(=O)COc1ccc(Br)cc1OC [#4] | 438 | 
COc1ccccc1/C=N/NC(=O)COc1ccc(I)cc1 [#5] | 481 | 
CCc1ccc(Br)cc1/C=N/NC(=O)COc1ccc(Br)cc1 [#6] | 512 | 
Cc1cc(Cl)ccc1OCC(=O)N/N=C/c1ccc(O)cc1O [#7] | 572 | 
CCOc1cc(I)cc(/C=N/NC(=O)COc2cccc(C)c2C)c1O [#8] | 894 | 
Cc1cc(Cl)ccc1OCC(=O)N/N=C/c1ccccc1O [#9] | 1020 | 
COc1cc(Nc2ccc([N+](=O)[O-])cc2C(=O)O)cc2ccccc12 [MONNA, N-((4-methoxy)-2-naphthyl)-5-nitroanthranilic acid] |  | effect on ATP-induced ANO2 current (ANO2): strongly blocked; inhibition of VRAC activity (VRAC [1]): 87.9 ± 1.7%; inhibition of ATP-induced ANO1 current (ANO1; 10 μM pretreatment): almost complete inhibition; IC50 (ANO1; apical membrane current, 20 min pretreatment, read-out: IC50 of ATP-induced ANO1 activation): 1950 ± 1160 nM; effect on ANO2 activity (mouse ANO2): potently blocked
O=C(Nc1cc(C(F)(F)F)cc(C(F)(F)F)c1)Nc1ccc(Br)cc1-c1nnn[nH]1 [NS3728] |  | block of VRAC activity (VRAC [2]): potently blocked
CFTRinh-172 |  | effect on CFTR channel activity (human wild-type CFTR): inhibited

From paper PMC4878759 (PLoS ONE, 2016)
